Source: patent US9840513B2 (AbbVie S.à.r.l., priority 2015, dated 2017)

Target: T1, F508delCFTR cell surface expression in CFBE41o-F508delCFTR-HRP cells (Homo sapiens, UniProt P13569, DEL508-508)
T1 construct: fused on or other part: Horseradish peroxidase (HRP) reporter inserted in the fourth exofacial (extracellular) loop of CFTR; expression is doxycycline-inducible
Assay: Cell Surface Expression-Horse Radish Peroxidase (CSE-HRP) Assay
Format: cell-based
Conditions: for EC50: CFBE41o-F508delCFTR-HRP cells, 18-24 hours at 33° C., 8-point curve, highest concentration 20 μM; for Maximum % activity (%): maximum at any tested concentration, normalized to on-plate positive control (3 μM)
In short: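 Correctors incubated 18-24 h at 33 °C on doxycycline-induced (0.5 μg/mL, 72 h) CFBE41o-F508delCFTR-HRP cells, 3-fold series from 20 μM. After DPBS washes, luminol luminescence read; activity expressed relative to DMSO and a 3 μM positive control, EC50 fitted from triplicate plates.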

T1 sequence (P13569 with tags, fused parts or gaps DEL508-508 limits assumed): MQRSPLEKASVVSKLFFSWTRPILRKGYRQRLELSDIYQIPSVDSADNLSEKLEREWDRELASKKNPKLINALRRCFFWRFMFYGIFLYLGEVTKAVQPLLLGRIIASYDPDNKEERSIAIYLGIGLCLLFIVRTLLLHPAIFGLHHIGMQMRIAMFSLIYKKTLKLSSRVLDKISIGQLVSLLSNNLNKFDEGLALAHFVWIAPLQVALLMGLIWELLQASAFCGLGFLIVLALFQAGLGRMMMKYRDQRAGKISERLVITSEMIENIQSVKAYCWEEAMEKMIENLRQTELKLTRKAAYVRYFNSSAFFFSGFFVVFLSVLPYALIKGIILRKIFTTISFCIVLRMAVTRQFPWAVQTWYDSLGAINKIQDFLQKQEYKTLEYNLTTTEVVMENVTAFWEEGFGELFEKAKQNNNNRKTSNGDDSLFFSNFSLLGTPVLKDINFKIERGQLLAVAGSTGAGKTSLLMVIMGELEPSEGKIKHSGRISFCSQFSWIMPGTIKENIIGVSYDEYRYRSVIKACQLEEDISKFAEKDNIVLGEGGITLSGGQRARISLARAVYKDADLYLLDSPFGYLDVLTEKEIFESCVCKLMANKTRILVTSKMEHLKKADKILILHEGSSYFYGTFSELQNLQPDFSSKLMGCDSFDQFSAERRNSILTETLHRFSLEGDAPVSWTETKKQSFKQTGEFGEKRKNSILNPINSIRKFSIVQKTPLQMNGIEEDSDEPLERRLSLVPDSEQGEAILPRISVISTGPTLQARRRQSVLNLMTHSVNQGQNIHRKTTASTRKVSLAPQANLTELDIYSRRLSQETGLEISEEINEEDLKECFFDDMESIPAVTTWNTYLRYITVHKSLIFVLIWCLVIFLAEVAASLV
T1 sequence (P13569 919-1480 limits assumed, stated change not applied): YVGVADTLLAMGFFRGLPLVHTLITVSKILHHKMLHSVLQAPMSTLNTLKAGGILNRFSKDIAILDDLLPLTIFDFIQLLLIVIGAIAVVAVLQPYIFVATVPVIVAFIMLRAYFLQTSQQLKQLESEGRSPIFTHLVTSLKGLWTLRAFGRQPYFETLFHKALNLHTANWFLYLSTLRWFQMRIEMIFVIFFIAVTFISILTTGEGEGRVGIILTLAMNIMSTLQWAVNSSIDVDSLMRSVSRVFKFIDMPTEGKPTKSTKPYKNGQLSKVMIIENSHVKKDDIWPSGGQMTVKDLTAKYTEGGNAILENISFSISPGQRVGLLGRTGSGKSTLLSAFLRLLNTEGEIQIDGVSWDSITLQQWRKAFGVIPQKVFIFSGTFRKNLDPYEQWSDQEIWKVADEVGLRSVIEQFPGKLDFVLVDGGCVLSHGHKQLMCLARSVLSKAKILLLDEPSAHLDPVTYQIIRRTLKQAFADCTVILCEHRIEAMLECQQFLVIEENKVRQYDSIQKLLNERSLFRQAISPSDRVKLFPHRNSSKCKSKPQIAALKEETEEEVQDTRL

C[C@]1(C(=O)Nc2cccc(-c3cccc(C(=O)O)c3F)n2)COc2cc3c(cc21)OC(F)(F)O3 [Example 125, 3-(6-{[(7R)-2,2-difluoro-7-methyl-6,7-dihydro-2H-furo[2,3-f][1,3]benzodioxole-7-carbonyl]amino}pyridin-2-yl)-2-fluorobenzoic acid]
EC50: 1.39 µM | Maximum % activity (%): 136%

CC(C)(CO)[C@H]1Cc2cc(NC(=O)[C@@]3(C)COc4cc5c(cc43)OC(F)(F)O5)c(F)cc2N1C[C@@H](O)CO (single isomer, unassigned) [Example 140]
EC50: 1.3 µM | Maximum % activity (%): 49%

C[C@]1(C(=O)N[C@@H]2C[C@H](c3ccc(C(=O)O)cc3)Oc3ccccc32)COc2cc3c(cc21)OC(F)(F)O3 [Example 23, 4-[(2R,4R)-4-{[(7R)-2,2-difluoro-7-methyl-6,7-dihydro-2H-furo[2,3-f][1,3]benzodioxole-7-carbonyl]amino}-3,4-dihydro-2H-1-benzopyran-2-yl]benzoic acid]
EC50: 0.18 µM | Maximum % activity (%): 127%

Cc1ccc(NC(=O)C2(C)COc3cc4c(cc32)OC(F)(F)O4)nc1-c1cccc(C(N)=O)c1 (stereo not drawn) [Example 74, N-[6-(3-carbamoylphenyl)-5-methylpyridin-2-yl]-2,2-difluoro-7-methyl-6,7-dihydro-2H-furo[2,3-f][1,3]benzodioxole-7-carboxamide]
EC50: 0.7 µM | Maximum % activity (%): 105%

CC(C)(C)OC(=O)CN1CCC([C@H]2C[C@@H](NC(=O)[C@@]3(C)COc4cc5c(cc43)OC(F)(F)O5)c3ccc(OC(F)(F)F)cc3O2)CC1 [Example 186, tert-butyl {4-[(2R,4R)-4-{[(7R)-2,2-difluoro-7-methyl-6,7-dihydro-2H-furo[2,3-f][1,3]benzodioxole-7-carbonyl]amino}-7-(trifluoromethoxy)-3,4-dihydro-2H-1-benzopyran-2-yl]piperidin-1-yl}acetate]
EC50: 0.67 µM | Maximum % activity (%): 189%

CC1(C)OC[C@H]([C@@H](O)Cn2nc(-c3ccccc3)cc(NC(=O)[C@@]3(C)COc4cc5c(cc43)OC(F)(F)O5)c2=O)O1 [Example 104, (7R)—N-(2-{(2S)-2-[(4R)-2,2-dimethyl-1,3-dioxolan-4-yl]-2-hydroxyethyl}-3-oxo-6-phenyl-2,3-dihydropyridazin-4-yl)-2,2-difluoro-7-methyl-6,7-dihydro-2H-furo[2,3-f][1,3]benzodioxole-7-carboxamide]
EC50: > 20 µM | Maximum % activity (%): 16%

CC1(C)OC[C@H](CN2CCC([C@@H]3C[C@H](NC(=O)[C@@]4(C)COc5cc6c(cc54)OC(F)(F)O6)c4ccc(OC(F)(F)F)cc4O3)CC2)O1 [Example 226, (7R)—N-[(2S,4S)-2-(1-{[(4S)-2,2-dimethyl-1,3-dioxolan-4-yl]methyl}piperidin-4-yl)-7-(trifluoromethoxy)-3,4-dihydro-2H-1-benzopyran-4-yl]-2,2-difluoro-7-methyl-6,7-dihydro-2H-furo[2,3-f][1,3]benzodioxole-7-carboxamide]
EC50: > 20 µM | Maximum % activity (%): 18%

COc1ccc2c(c1)O[C@@H](c1ccc(C(=O)NC(CO)c3ccccc3OC)cn1)C[C@H]2NC(=O)[C@@]1(C)COc2cc3c(cc21)OC(F)(F)O3 (stereo partly drawn) [Example 222, 6-[(2R,4R)-4-{[(7R)-2,2-difluoro-7-methyl-6,7-dihydro-2H-furo[2,3-f][1,3]benzodioxole-7-carbonyl]amino}-7-methoxy-3,4-dihydro-2H-1-benzopyran-2-yl]-N-[2-hydroxy-1-(2-methoxyphenyl)ethyl]pyridine-3-carboxamide]
EC50: 0.02 µM | Maximum % activity (%): 116%

COc1ccc2c(c1)O[C@@H](COC[C@H](O)CO)C[C@H]2NC(=O)[C@@]1(C)COc2cc3c(cc21)OC(F)(F)O3 [Example 274, (7R)—N-[(2R,4R)-2-{[(2R)-2,3-dihydroxypropoxy]methyl}-7-methoxy-3,4-dihydro-2H-1-benzopyran-4-yl]-2,2-difluoro-7-methyl-6,7-dihydro-2H-furo[2,3-f][1,3]benzodioxole-7-carboxamide]
EC50: 0.85 µM | Maximum % activity (%): 99%

COc1ccc2c(c1)O[C@@H](c1nnn[nH]1)C[C@H]2NC(=O)[C@@]1(C)COc2cc3c(cc21)OC(F)(F)O3 [Example 202, (7R)-2,2-difluoro-N-[(2R,4R)-7-methoxy-2-(1H-tetrazol-5-yl)-3,4-dihydro-2H-1-benzopyran-4-yl]-7-methyl-6,7-dihydro-2H-furo[2,3-f][1,3]benzodioxole-7-carboxamide]
EC50: > 20 µM | Maximum % activity (%): 8%

C[C@]1(C(=O)N[C@@H]2C[C@H]([C@H]3CC[C@H](C(=O)N4CCOCC4)CC3)Oc3cc(OC(F)(F)F)ccc32)COc2cc3c(cc21)OC(F)(F)O3 [Example 271, (7R)-2,2-difluoro-7-methyl-N-[(2R,4R)-2-[trans-4-(morpholine-4-carbonyl)cyclohexyl]-7-(trifluoromethoxy)-3,4-dihydro-2H-1-benzopyran-4-yl]-6,7-dihydro-2H-furo[2,3-f][1,3]benzodioxole-7-carboxamide]
EC50: 0.06 µM | Maximum % activity (%): 172%

COc1ccc2c(c1)O[C@@H](c1ccc(C(=O)NC3CCNC(=O)C3)cn1)C[C@H]2NC(=O)[C@@]1(C)COc2cc3c(cc21)OC(F)(F)O3 (stereo partly drawn) [Example 232, 6-[(2R,4R)-4-{[(7R)-2,2-difluoro-7-methyl-6,7-dihydro-2H-furo[2,3-f][1,3]benzodioxole-7-carbonyl]amino}-7-methoxy-3,4-dihydro-2H-1-benzopyran-2-yl]-N-(2-oxopiperidin-4-yl)pyridine-3-carboxamide]
EC50: 0.26 µM | Maximum % activity (%): 117%

COc1ccc2c(c1)O[C@@H](c1cnc([C@@H](O)CO)cn1)C[C@H]2NC(=O)[C@@]1(C)COc2cc3c(cc21)OC(F)(F)O3 (single isomer, unassigned) [Example 191]
EC50: 0.07 µM | Maximum % activity (%): 123%

CC(C)(C)c1cc2cc(NC(=O)[C@@]3(C)COc4cc5c(cc43)OC(F)(F)O5)c(F)cc2n1C[C@@H](O)CO [Example 133, (7R)—N-{2-tert-butyl-1-[(2R)-2,3-dihydroxypropyl]-6-fluoro-1H-indol-5-yl}-2,2-difluoro-7-methyl-6,7-dihydro-2H-furo[2,3-f][1,3]benzodioxole-7-carboxamide]
EC50: 0.3 µM | Maximum % activity (%): 132%

C[C@]1(C(=O)N[C@H]2C[C@@H](C3(C(=O)O)CC3)Oc3cc(OC(F)(F)F)ccc32)COc2cc3c(cc21)OC(F)(F)O3 [Example 201, 1-[(2S,4S)-4-{[(7R)-2,2-difluoro-7-methyl-6,7-dihydro-2H-furo[2,3-f][1,3]benzodioxole-7-carbonyl]amino}-7-(trifluoromethoxy)-3,4-dihydro-2H-1-benzopyran-2-yl]cyclopropane-1-carboxylic acid]
EC50: 1.61 µM | Maximum % activity (%): 71%

C[C@]1(C(=O)Nc2cccc(N3CC4CCCC4(C(=O)O)C3)n2)COc2cc3c(cc21)OC(F)(F)O3 (stereo partly drawn) [Example 117, 2-(6-{[(7R)-2,2-difluoro-7-methyl-6,7-dihydro-2H-furo[2,3-f][1,3]benzodioxole-7-carbonyl]amino}pyridin-2-yl)hexahydrocyclopenta[c]pyrrole-3a(1H)-carboxylic acid]
EC50: 1.39 µM | Maximum % activity (%): 147%

COc1ccc2c(c1)O[C@@H](c1cnc(CO)cn1)C[C@H]2NC(=O)[C@@]1(C)COc2cc3c(cc21)OC(F)(F)O3 [Example 173, (7R)-2,2-difluoro-N-{(2R,4R)-2-[5-(hydroxymethyl)pyrazin-2-yl]-7-methoxy-3,4-dihydro-2H-1-benzopyran-4-yl}-7-methyl-6,7-dihydro-2H-furo[2,3-f][1,3]benzodioxole-7-carboxamide]
EC50: 0.09 µM | Maximum % activity (%): 132%

C[C@]1(C(=O)N[C@@H]2C[C@H]([C@H]3CC[C@H](C(=O)N4CCC(O)CC4)CC3)Oc3cc(OC(F)(F)F)ccc32)COc2cc3c(cc21)OC(F)(F)O3 [Example 265, (7R)-2,2-difluoro-N-[(2R,4R)-2-[trans-4-(4-hydroxypiperidine-1-carbonyl)cyclohexyl]-7-(trifluoromethoxy)-3,4-dihydro-2H-1-benzopyran-4-yl]-7-methyl-6,7-dihydro-2H-furo[2,3-f][1,3]benzodioxole-7-carboxamide]
EC50: 0.08 µM | Maximum % activity (%): 173%

COc1ccc2c(c1)O[C@@H](c1ccc(C(=O)NC(C)CO)cn1)C[C@H]2NC(=O)[C@@]1(C)COc2cc3c(cc21)OC(F)(F)O3 (stereo partly drawn) [Example 242, 6-[(2R,4R)-4-{[(7R)-2,2-difluoro-7-methyl-6,7-dihydro-2H-furo[2,3-f][1,3]benzodioxole-7-carbonyl]amino}-7-methoxy-3,4-dihydro-2H-1-benzopyran-2-yl]-N-(1-hydroxypropan-2-yl)pyridine-3-carboxamide]
EC50: 0.04 µM | Maximum % activity (%): 116%

COc1ccc2c(c1)OC(c1ccc(=O)n(C[C@@H](O)CO)n1)C[C@H]2NC(=O)[C@@]1(C)COc2cc3c(cc21)OC(F)(F)O3 (stereo partly drawn) [Example 196, (7R)—N-[(4R)-2-{1-[(2R)-2,3-dihydroxypropyl]-6-oxo-1,6-dihydropyridazin-3-yl}-7-methoxy-3,4-dihydro-2H-1-benzopyran-4-yl]-2,2-difluoro-7-methyl-6,7-dihydro-2H-furo[2,3-f][1,3]benzodioxole-7-carboxamide]
EC50: 0.4 µM | Maximum % activity (%): 105%

CCN(CCO)C(=O)c1ccc([C@H]2C[C@@H](NC(=O)[C@@]3(C)COc4cc5c(cc43)OC(F)(F)O5)c3ccc(OC)cc3O2)nc1 [Example 235, 6-[(2R,4R)-4-{[(7R)-2,2-difluoro-7-methyl-6,7-dihydro-2H-furo[2,3-f][1,3]benzodioxole-7-carbonyl]amino}-7-methoxy-3,4-dihydro-2H-1-benzopyran-2-yl]-N-ethyl-N-(2-hydroxyethyl)pyridine-3-carboxamide]
EC50: 0.05 µM | Maximum % activity (%): 114%
